Results reported in patent publication US20250353891A1 (MEDIMMUNE LIMITED, priority 2022, published 2025).
Values joined by “and” are separate entries in the source; they are usually repeats but may differ in a detail not shown here. Identical values can stand only once. Starred links: 1 amine or outer side, 2 acyl side, 3 side chain; linkers in the order of their positions; H or OH if unused. Non-standard residues stand in square brackets, D forms with d. Residues, ends and D or L forms follow the SMILES beside them. Groups on a side chain read outwards from the residue. *: point of attachment. C18 diacid = O=C(O)CCCCCCCCCCCCCCCCC(=O)*; γGlu = O=C(O)[C@H](CCC(=O)[*:2])N[*:1]; αMeF = C[C@](N)(Cc1ccccc1)C(=O)O; AEEA = NCCOCCOCC(=O)O; Aib = CC(C)(N)C(=O)O

Key:
[1] = Mouse acute food intake study; assay type: in vivo; settings: male C57Bl/6 mice, s.c., cumulative food intake at 24 hr vs vehicle
How it was run: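 Peptide or vehicle went subcutaneously (5 mL/kg) to 6-8 h-fasted male C57Bl/6 mice shortly before the dark phase, with groups balanced on body weight and 24-hour intake. Cumulative food consumption was derived from 48 h of automated BioDaq monitoring with free food and water access.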

[2] = tested on: GLP-1R knockout (KO) mice; assay: Glucose change in GLP-1R knockout mice; assay type: in vivo, mouse; settings: GLP-1R KO mice, s.c., 120 min vs 0 min, somatostatin pretreatment (octreotide) 30 min prior to cpd
How it was run: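 GLP-1R knockout mice (n=4-8/group, sorted by body weight) were fasted 2 h, and in some studies pretreated with octreotide 10 mg/kg 30 min before peptide injection. Mice were reused up to 3 times with at least 1-week wash-out.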

wildtype (WT) mice = assay: Glucose change in wildtype mice; assay type: in vivo, mouse; settings: s.c., 120 min vs 0 min, somatostatin pretreatment (octreotide) 30 min prior to cpd
How it was run: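 Wildtype mice aged 8-14 weeks, fasted 2 h, sometimes pre-treated with octreotide 10 mg/kg 30 min before peptide injection. Blood glucose by glucometer at -30, 0, 30, 60, 120, 180, 240 and 360 min; n=4-8/group, mice reused up to 3 times with ≥1 week wash-out.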

in vivo [3] = settings: male, C57BL/6, mouse, 10 nmol/kg
in vivo [4] = settings: male, Beagle, dog, iv, 10 nmol/kg
Source text: (§1) Selected test peptides (n=8) were profiled for pharmacokinetic (PK) properties in the mouse after single intravenous (i.v.) or subcutaneous (s.c.) dose. A subset (n=4) meeting the acceptance criteria was subsequently profiled in the dog (single i.v. dose) and non-human primate (single i.v. and s.c. dose). […] Low-binding plasticware containers were used during preparation and sample handling to avoid non-specific binding.
Blood of each sample was transferred into plastic micro centrifuge tubes containing EDTA-K2, inverted several times for proper mixing of contents and then placed on wet ice.
(§2) Samples analysis: Samples were analyzed by LC-MS/MS. Calibration standards were injected at the beginning and end of each batch and the determined concentration for each prepared standard was used to construct a calibration curve. Plasma and dose aliquot sample concentrations were determined from the plasma calibration curve.
(§3) Data analysis: Plasma concentration data was analyzed by non-compartmental analysis (NCA) using Phoenix Winnonlin v. 8.3.3.33. Linear trapezoidal rule was used for increasing values and log trapezoidal rule was used for decreasing values, applying uniform weighting for lambda_z calculations. Subcutaneous bioavailability was calculated as the ratio AUC(s.c.)0-inf/AUC(i.v.)0-inf. Reported values (Table 18) represent the mean of the individual estimates.

in vivo [5] = settings: male, cynomolgus monkey, 10 nmol/kg
Source text: as §1
Non-human primate: PK was studied in non-naïve male cynomolgus monkeys. After dosing, PK samples were collected from the femoral vein. Blood of each sample was transferred into plastic micro centrifuge tubes containing EDTA-K2, inverted several times for proper mixing of contents and then placed on wet ice. The blood samples were centrifuged under refrigerated (2° C. to 8° C.) conditions within 30 minutes following sample collection to obtain plasma and stored at −60° C. to −90° C.° C. prior to analysis.
as §2, §3

[6] = biological target: human GLP-1 receptor (hGLP-1R) (Homo sapiens, UniProt P43220); assay: cAMP production (HTRF) in CHO cells expressing hGLP-1R; assay type: cell-based; design: expressed in transfected cells
How it was run: (§4)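 Cells were resuspended in assay buffer at batch-optimized density, typically 1×10^5 cells/mL for hGLP-1R and 2×10^5 cells/mL for hGCGR. After 30 min incubation at room temperature with compound, cAMP was measured by two-step HTRF. EC50 values came from 4-parameter logistic fits of % Delta F.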

[7] = biological target: human glucagon receptor (hGCGR) (Homo sapiens, UniProt P47871); assay: cAMP production (HTRF) in CHO cells expressing hGCGR; assay type: cell-based; design: expressed in transfected cells; settings: Table 7, peptides modified at position 20; cAMP in CHO hGCGR cells; geometric mean; read-out: hGluc-R EC50
How it was run: as §4

[8] = Proteolytic resistance to FasSSGF containing porcine pancreatic pepsin; assay type: in vitro ADME; settings: pig, simulated gastric fluid, FasSSGF with pepsin, 37° C., read-out: % intact peptide over time (min)
How it was run: (§5)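 Peptide (250 μM stock in FasSSGF) mixed 1:1 with porcine pepsin stock (0.5 mg/mL in FasSSGF) and held at 37° C; samples at 0, 5, 10, 15 and 30 min quenched in ammonium bicarbonate, pH 8. Intact peptide remaining estimated by RP-HPLC peak area, UV 210 nm.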

[9] = biological target: T1, porcine pancreatic pepsin (Sus scrofa, UniProt P00791); assay: as above; assay type: in vitro ADME; settings: FasSSGF with pepsin, 37° C., 0 min
T1 construct: purchased Sigma P7012
How it was run: as §5

Pancreatin = assay: Proteolytic resistance to FasSSIF/Pancreatin; assay type: in vitro ADME; settings: FasSSIF/Pancreatin, 37° C., 0 min
How it was run: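 Peptide (1.0 mg) in pre-warmed FasSSIF, proteolysis started with fresh FasSSIF/USP Pancreatin and held at 37 °C. Aliquots at 0, 5, 10, 15, 30 min quenched in 10% TFA; remaining intact peptide estimated by RP-HPLC peak area, UV 210 nm.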

Chain of human GLP-1 receptor (hGLP-1R) (P43220 24-463): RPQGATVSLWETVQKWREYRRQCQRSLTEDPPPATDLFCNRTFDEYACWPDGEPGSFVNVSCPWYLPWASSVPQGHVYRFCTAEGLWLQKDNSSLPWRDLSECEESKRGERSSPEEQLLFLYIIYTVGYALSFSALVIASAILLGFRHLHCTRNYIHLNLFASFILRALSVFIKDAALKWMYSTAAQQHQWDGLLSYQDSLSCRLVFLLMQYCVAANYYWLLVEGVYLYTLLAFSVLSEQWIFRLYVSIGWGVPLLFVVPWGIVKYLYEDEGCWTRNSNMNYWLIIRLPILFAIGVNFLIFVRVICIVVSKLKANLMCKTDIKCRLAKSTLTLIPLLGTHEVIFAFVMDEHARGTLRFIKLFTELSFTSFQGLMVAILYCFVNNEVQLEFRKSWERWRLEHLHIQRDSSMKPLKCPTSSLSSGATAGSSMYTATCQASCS
Chain of human glucagon receptor (hGCGR) (P47871 26-477): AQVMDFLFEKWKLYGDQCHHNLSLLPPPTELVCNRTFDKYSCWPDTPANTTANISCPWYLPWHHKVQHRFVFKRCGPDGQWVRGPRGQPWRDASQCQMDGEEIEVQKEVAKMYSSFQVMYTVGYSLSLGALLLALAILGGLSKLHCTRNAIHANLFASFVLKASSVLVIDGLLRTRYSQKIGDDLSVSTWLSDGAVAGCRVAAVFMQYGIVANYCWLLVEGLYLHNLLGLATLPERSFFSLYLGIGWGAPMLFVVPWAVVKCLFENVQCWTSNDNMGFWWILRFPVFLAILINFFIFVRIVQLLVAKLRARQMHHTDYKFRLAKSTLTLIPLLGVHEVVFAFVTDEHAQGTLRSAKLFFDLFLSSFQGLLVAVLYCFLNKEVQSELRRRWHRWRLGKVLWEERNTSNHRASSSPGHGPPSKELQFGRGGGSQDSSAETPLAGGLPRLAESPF
T1 sequence (P00791 60-385): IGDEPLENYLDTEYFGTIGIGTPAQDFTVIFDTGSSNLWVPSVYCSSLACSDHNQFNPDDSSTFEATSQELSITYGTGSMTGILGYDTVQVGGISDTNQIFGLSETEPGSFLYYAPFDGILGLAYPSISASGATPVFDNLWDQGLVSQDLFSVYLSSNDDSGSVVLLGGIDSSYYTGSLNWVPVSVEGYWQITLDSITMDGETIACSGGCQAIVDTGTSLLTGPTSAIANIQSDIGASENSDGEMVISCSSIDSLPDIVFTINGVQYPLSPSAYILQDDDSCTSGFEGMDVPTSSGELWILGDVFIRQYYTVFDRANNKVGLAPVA

Compound: CC[C@H](C)[C@H](NC(=O)C(C)(C)NC(=O)[C@H](CCC(N)=O)NC(=O)[C@@H](NC(=O)[C@](C)(Cc1ccccc1)NC(=O)[C@H](CC(=O)O)NC(=O)[C@H](CCCCNC(=O)COCCOCCNC(=O)COCCOCCNC(=O)CC[C@H](NC(=O)CCCCCCCCCCCCCCCCC(=O)O)C(=O)O)NC(=O)[C@H](C)NC(=O)[C@H](C)NC(=O)[C@H](CCCNC(=N)N)NC(=O)[C@H](CO)NC(=O)[C@H](CC(=O)O)NC(=O)[C@H](CC(C)C)NC(=O)[C@](C)(Cc1ccccc1)NC(=O)[C@H](CCCCN)NC(=O)[C@H](CO)NC(=O)[C@@H](NC(=O)[C@H](CC(=O)O)NC(=O)[C@H](CO)NC(=O)[C@@H](NC(=O)[C@](C)(Cc1ccccc1)NC(=O)[C@H](CO)NC(=O)CNC(=O)[C@H](Cc1c[nH]cn1)NC(=O)C(C)(C)NC(=O)[C@@H](N)Cc1c[nH]cn1)[C@@H](C)O)C(C)C)C(C)C)C(=O)N[C@@H](C)C(=O)N[C@@H](CC(N)=O)C(=O)N[C@H](C(N)=O)[C@@H](C)O [Peptide 224, H-Aib-H-G-S-αMePhe-T-S-D-V—S-K-αMePhe-L-D-S-R-A-A-K (E-(O2Oc)-(O2Oc)-γE-C18diacid) 20-D-αMePhe-V-Q-Aib-I-A-N-T-amide] (H-H[Aib]HGS[αMeF]TSDVSK[αMeF]LDSRAAK([AEEA-AEEA-γGlu-C18 diacid])D[αMeF]VQ[Aib]IANT-NH2; N-terminus assumed)
- 24 hr % Vehicle Food Intake ([1]; dose 1 nmol/kg): 91.3%
- 24 hr % Vehicle Food Intake ([1]; dose 3 nmol/kg): 76.6%
- 24 hr % Vehicle Food Intake ([1]; dose 10 nmol/kg): 66.5% and 72.5%
- GLP-1R KO % glucose change 120 min ([2]; 3 nmol/kg): 100.3%
- GLP-1R KO % glucose change 120 min ([2]; 10 nmol/kg): 132.3%
- WT % glucose change 120 min (wildtype (WT) mice; 3 nmol/kg): −46.3%
- WT % glucose change 120 min (wildtype (WT) mice; 10 nmol/kg): −40.0%
- bioavailability (in vivo [3]): 109%
- half-life (in vivo [3]; iv): 570 min
- half-life (in vivo [4]): 3.12 days
- bioavailability (in vivo [5]): 95%
- half-life (in vivo [5]; iv): 4.17 days
- EC50 ([6]; Table 7, peptides modified at position 20, cAMP in CHO hGLP-1R cells, geometric mean, read-out: hGLP-1R EC50): 0.0321 nM
- % Relative Potency Ratio ([6]; Table 7, % GLP-1R activity relative to GLP-1 / % GlucR activity relative to glucagon): 1.8
- EC50 [7]: 0.0287 nM

Compound: CC[C@H](C)[C@H](NC(=O)[C@H](Cc1ccccc1)NC(=O)[C@H](CCC(=O)O)NC(=O)[C@H](CCCCNC(=O)COCCOCCNC(=O)COCCOCCNC(=O)CC[C@H](NC(=O)CCCCCCCCCCCCCCCCC(=O)O)C(=O)O)NC(=O)[C@H](C)NC(=O)[C@H](C)NC(=O)[C@H](CCC(N)=O)NC(=O)CNC(=O)[C@H](CCC(=O)O)NC(=O)[C@H](CC(C)C)NC(=O)[C@H](Cc1ccc(O)cc1)NC(=O)[C@H](CO)NC(=O)[C@H](CO)NC(=O)[C@@H](NC(=O)[C@H](CC(=O)O)NC(=O)[C@H](CO)NC(=O)[C@@H](NC(=O)[C@H](Cc1ccccc1)NC(=O)[C@@H](NC(=O)CNC(=O)[C@H](CCC(=O)O)NC(=O)C(C)(C)NC(=O)[C@@H](N)Cc1cnc[nH]1)[C@@H](C)O)[C@@H](C)O)C(C)C)C(=O)N[C@@H](C)C(=O)N[C@@H](Cc1c[nH]c2ccccc12)C(=O)N[C@@H](CC(C)C)C(=O)N[C@H](C(=O)N[C@@H](CCCNC(=N)N)C(=O)NCC(=O)N[C@@H](CCCNC(=N)N)C(=O)NCC(=O)O)C(C)C [semaglutide, reference compound]
- remaining at 5 min, 125 µM ([8]; 5 min): 15%
- remaining at 10 min, 125 µM ([8]; 10 min): 13%
- remaining at 0.25 h, 125 µM ([8]; 15 min): 12%
- remaining at 0.5 h, 125 µM ([8]; 30 min): 14%
- % intact peptide over time (min) [9]: 100%
- % intact peptide over time (min) (Pancreatin): 100%
